Reference: patent US11939340B2, “CDK inhibitors and their use as pharmaceuticals” (Prelude Therapeutics Incorporated, priority 2022, dated 2024)

Key:
CDK4/Cyclin D1 = molecular target: T1, CDK4/Cyclin D1 (Homo sapiens, UniProt P11802); assay: CDK4/CyclinD1 Enzymatic Activity Assay (TR-FRET); assay type: biochemical; settings: CDK4/CyclinD1 1 nM, ATP 2 mM, read-out: CDK4_D1 IC50
T1 construct: purchased ProQinase; host or cells: insect cell
Description: CDK4/CyclinD1 Enzymatic Activity Assay
The inhibitory activity of compounds was evaluated in vitro using TR-FRET assay with white 384-well low volume microplate (Greiner Bio-One). CDK4/Cyclin D1 catalyzed phosphorylation of peptide in the presence and absence of compounds was measured and used in IC50 determination. Recombinant protein complex CDK4/Cyclin D1, expressed from insect cell, was purchased from ProQinase. Testing compounds were dissolved in DMSO at 1 mM and tested in 9-dose IC50 mode. The reaction mixture was prepared by mixing CDK4/CyclinD1 (1 nM final), ULight-4E-BP1 (100 nM final, Perkinelmer, TRF0128-D), and ATP (2 mM final) in assay buffer (20 mM of HEPES pH 7.4, 1 mM of EGTA, 0.05% BSA, 0.005% Tween 20, and 1 mM TCEP). The compound of interest in DMSO was added to each well in 3-fold serial dilution by the dispenser (TECAN D300E) to make a 9.9 μL of reaction mixture. After 20 minutes preincubation at room temperature, 0.1 μL MgCl2 (10 mM final) was added to initiate the reaction. Following a 45 minute incubation at 37° C., the reaction was stopped by addition of 2 μL of quenching buffer consisting of Lance detection buffer (Perkinelmer CR97-100C), LANCE Ultra Europium-anti-P-4E-BP1 (Perkinelmer, TRF0216-D), EDTA, and incubated at room temperature for additional 60 minutes in dark. The reaction signal was measured by Envision multimode plate reader (PerkinElmer, 2102-0010). IC50 values were determined by fitting the data to the standard 4 parameters with Hill Slope using GraphPad Prism software.

CDK2/Cyclin E2 = CDK2/Cyclin E2 (Homo sapiens, UniProt P24941); assay: CDK2/CyclinE2 Enzymatic Activity Assay (TR-FRET); assay type: biochemical; settings: CDK2/CyclinE2 1 nM, ATP 1 mM, read-out: CDK2_El IC50
Description: CDK2/CyclinE2 Enzymatic Activity Assay
The inhibitory activity of compounds was evaluated in vitro using TR-FRET assay with white 384-well low volume microplate (Greiner Bio-One). CDK2/Cyclin E2 catalyzed phosphorylation of peptide in the presence and absence of compounds was measured and used in IC50 determination. Recombinant protein complex CDK2/Cyclin E2, expressed from insect cell, was purchased from ProQinase. Testing compounds were dissolved in DMSO at 1 mM and tested in 9-dose IC50 mode. The reaction mixture was prepared by mixing CDK2/CyclinE2 (1 nM final), ULight-4E-BP1 (50 nM final, Perkinelmer, TRF0128-D), and ATP (1 mM final) in assay buffer (20 mM of HEPES pH 7.4, 1 mM of EGTA, 0.05% BSA, 0.005% Tween 20, and 1 mM TCEP). The compound of interest in DMSO was added to each well in 3-fold serial dilution by dispenser (TECAN D300E) to make a 9.9 μL of reaction mixture. After 20 minutes preincubation at room temperature, 0.1 μL MgCl2 (10 mM final) was added to initiate the reaction. Following a 45 minute incubation at 37° C., the reaction was stopped by addition of 2 μL of quenching buffer consisting of Lance detection buffer (Perkinelmer CR97-100C), LANCE Ultra Europium-anti-P-4E-BP1 (Perkinelmer, TRF0216-D), EDTA, and incubate at room temperature for additional 60 minutes in the dark. The reaction signal was measured by Envision multimode plate reader (PerkinElmer, 2102-0010). IC50 values were determined by fitting the data to the standard 4 parameters with Hill Slope using GraphPad Prism software.

pRB in OVCAR3 cells = assay: pRB ICW Assay in OVCAR3 Cells; assay type: cell-based; settings: Homo sapiens, OVCAR-3, incubated with compound for 2 hours, read-out: OVCAR3 p-RB ICW IC50
Description: pRB ICW Assay in OVCAR3 Cells
OVCAR3 cells were maintained in RPMI (Corning, Catalog #: 10-040-CV) supplemented with 10% v/v FBS (Gibco, Catalog #: 26140-079), 1% v/v Penicillin Streptomycin (Gibco, Catalog #15140-122.) OVCAR3 cells grown at log phase were trypsinized, counted, and resuspended in fresh medium to reach a final density of 6.7e4 cells/mL and 75 μL of culture were dispensed into a 384-well plate (Falcon, cat #353962) using a Multidrop Combi dispenser (Thermo Scientific). The next day, compounds were dispensed as a 9-point, ½ log serial dilution using a Tecan digital dispenser (D300e), and cells were incubated with compound for 2 hours in a humidified incubator at 37° C. A reference compound at a final concentration of 10 μM was used as a control for maximum inhibition. Each compound was tested in duplicates for each experiment. At the end of the incubation, 25 μL of 16% paraformaldehyde (Electron Microscopy, cat #15710) was slowly added to each well and the plate was incubated at room temperature (RT) for 30 minutes to fix cells. Cells were then permeabilized by incubating with 50 μL/well of wash buffer (lx PBS with 0.1% Triton X-100) 5×5 minutes, followed by 1 hour blocking with 30 μL/well of Odyssey blocking buffer (Li—COR, cat #927-40000), at RT. Anti-phosphor RB antibody (Cell signaling 8516S) was diluted 1:1000 in Odyssey blocking buffer and 20 μL was added to all wells and incubated overnight in 4° C. with gently rocking. The next day, cells were washed 5×5 min with 50 μL/well of wash buffer, followed with 1 hour incubation with secondary antibody and DRAQ5 diluted in Odyssey blocking buffer (1:500 dilution for secondary antibody and 1:2000 dilution for DRAQ5), 5×5 min washes, and one last wash with water. Plates were dried in 37° C. oven for 5 minutes and scanned using Li—COR Odyssey CLx imaging system to acquire intensities at 700 and 800 nm channels.

T1 sequence (P11802 whole entry): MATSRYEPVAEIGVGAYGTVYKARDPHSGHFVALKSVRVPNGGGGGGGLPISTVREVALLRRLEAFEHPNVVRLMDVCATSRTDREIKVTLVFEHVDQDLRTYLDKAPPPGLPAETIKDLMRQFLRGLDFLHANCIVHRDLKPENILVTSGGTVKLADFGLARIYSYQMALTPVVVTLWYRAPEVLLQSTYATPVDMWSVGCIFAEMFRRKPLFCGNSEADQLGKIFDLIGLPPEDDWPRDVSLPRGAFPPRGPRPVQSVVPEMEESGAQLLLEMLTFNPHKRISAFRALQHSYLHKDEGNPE
T1 sequence (P24385 whole entry partner): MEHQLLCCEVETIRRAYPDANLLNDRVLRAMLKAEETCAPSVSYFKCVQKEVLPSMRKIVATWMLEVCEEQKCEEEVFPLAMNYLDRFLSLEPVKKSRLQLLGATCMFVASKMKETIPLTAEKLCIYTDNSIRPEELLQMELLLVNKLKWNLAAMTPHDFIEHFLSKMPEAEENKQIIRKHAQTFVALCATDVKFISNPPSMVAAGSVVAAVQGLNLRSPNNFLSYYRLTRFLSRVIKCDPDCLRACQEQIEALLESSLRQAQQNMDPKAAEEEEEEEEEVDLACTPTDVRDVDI

| IC50 (CDK4/Cyclin D1) [nM] | IC50 (CDK2/Cyclin E2) [nM] | IC50 (pRB in OVCAR3 cells) [nM] | Structure (SMILES) |
| --- | --- | --- | --- |
| ≤ 100 | ≤ 100 | ≤ 100 | CC12CCCN1C(=O)c1cc(-c3nc(NC4CCN(S(C)(=O)=O)CC4)ncc3C(F)(F)F)sc12 (stereo not drawn) [Example 20, 8a-Methyl-2-(2-((1-(methylsulfonyl)piperidin-4-yl)amino)-5-(trifluoromethyl)pyrimidin-4-yl)-6,7,8,8a-tetrahydro-4H-thieno[2,3-a]pyrrolizin-4-one] |
| ≤ 100 | ≤ 100 | ≤ 100 | CCC12CC(O)CN1C(=O)c1cc(-c3nc(NC4CCN(S(=O)(=O)c5cnn(C)c5)CC4)ncc3C(F)(F)F)sc12 (stereo not drawn) [Example 36, 8a-Ethyl-7-hydroxy-2-(2-((1-((1-methyl-1H-pyrazol-4-yl)sulfonyl)piperidin-4-yl)amino)-5-(trifluoromethyl)pyrimidin-4-yl)-6,7,8,8a-tetrahydro-4H-thieno[2,3-a]pyrrolizin-4-one] |
| ≤ 100 | ≤ 100 | ≤ 100 | CCNC1CN2C(=O)c3cc(-c4nc(NC5CCN(S(C)(=O)=O)CC5)ncc4C(F)(F)F)sc3C2(CC)C1 (stereo not drawn) [Example 41, 8a-Ethyl-7-(ethylamino)-2-(2-((1-(methylsulfonyl)piperidin-4-yl)amino)-5-(trifluoromethyl)pyrimidin-4-yl)-6,7,8,8a-tetrahydro-4H-thieno[2,3-a]pyrrolizin-4-one] |
| ≤ 100 | ≤ 100 | ≤ 100 | [2H]C([2H])([2H])NC1CN2C(=O)c3cc(-c4nc(NC5CCN(S(C)(=O)=O)CC5)ncc4C(F)(F)F)sc3C2(CC)C1 (stereo not drawn) [Example 42, 8a-Ethyl-7-((methyl-d3)amino)-2-(2-((1-(methylsulfonyl)piperidin-4-yl)amino)-5-(trifluoromethyl)pyrimidin-4-yl)-6,7,8,8a-tetrahydro-4H-thieno[2,3-a]pyrrolizin-4-one] |
| ≤ 100 | ≤ 100 | ≤ 100 | CCC12CC(NC)CN1C(=O)c1cc(-c3nc(N[C@H]4CCN(S(C)(=O)=O)C[C@H]4F)ncc3C(F)(F)F)sc12 (stereo partly drawn) [Example 48, 8a-Ethyl-2-(2-(((3R,4S)-3-fluoro-1-(methylsulfonyl)piperidin-4-yl)amino)-5-(trifluoromethyl)pyrimidin-4-yl)-7-(methylamino)-6,7,8,8a-tetrahydro-4H-thieno[2,3-a]pyrrolizin-4-one] |
| ≤ 100 | ≤ 100 | ≤ 100 | CCC12CCCN1C(=O)c1cc(-c3nc(NC4CCN(S(C)(=O)=O)CC4)ncc3C)sc12 (stereo not drawn) [Example 16, 8a-Ethyl-2-[5-methyl-2-[(1-methylsulfonylpiperidin-4-yl)amino]pyrimidin-4-yl]-7,8-dihydro-6H-thieno[2,3-a]pyrrolizin-4-one] |
| ≤ 100 | ≤ 100 | 100 to 500 | CC(C)C12CCCN1C(=O)c1cc(-c3nc(NC4CCN(S(C)(=O)=O)CC4)ncc3C(F)(F)F)sc12 (stereo not drawn) [Example 11, 8a-Isopropyl-2-(2-((1-(methylsulfonyl)piperidin-4-yl)amino)-5-(trifluoro-methyl)pyrimidin-4-yl)-6,7,8,8a-tetrahydro-4H-thieno[2,3-a]pyrrolizin-4-one] |
| ≤ 100 | ≤ 100 | ≤ 100 | CCC12CC(N(C)C)CN1C(=O)c1cc(-c3nc(NC4CCN(S(=O)(=O)c5cnn(C)c5)CC4)ncc3C(F)(F)F)sc12 (stereo not drawn) [Example 50, 7-(Dimethylamino)-8a-ethyl-2-(2-((1-((1-methyl-1H-pyrazol-4-yl)sulfonyl)piperidin-4-yl)amino)-5-(trifluoromethyl)pyrimidin-4-yl)-6,7,8,8a-tetrahydro-4H-thieno[2,3-a]pyrrolizin-4-one] |
| ≤ 100 | ≤ 100 | ≤ 100 | CCC12CC(O)CN1C(=O)c1cc(-c3nc(NC4CCN(S(C)(=O)=O)CC4)ncc3C(F)(F)F)sc12 (stereo not drawn) [Example 33, 8a-Ethyl-7-hydroxy-2-(2-((1-(methylsulfonyl)piperidin-4-yl)amino)-5-(trifluoromethyl)pyrimidin-4-yl)-6,7,8,8a-tetrahydro-4H-thieno[2,3-a]pyrrolizin-4-one] |
| ≤ 100 | ≤ 100 | ≤ 100 | CCC12CC(N)CN1C(=O)c1cc(-c3nc(N[C@H]4CCN(S(C)(=O)=O)C[C@H]4C)ncc3C(F)(F)F)sc12 (stereo partly drawn) [Example 45, 7-Amino-8a-ethyl-2-(2-(((3R,4S)-3-methyl-1-(methylsulfonyl)piperidin-4-yl)amino)-5-(trifluoromethyl)pyrimidin-4-yl)-6,7,8,8a-tetrahydro-4H-thieno[2,3-a]pyrrolizin-4-one] |
| ≤ 100 | ≤ 100 | ≤ 100 | CCC12CC(NC)CN1C(=O)c1cc(-c3nc(N[C@@H]4CCN(S(C)(=O)=O)C[C@H]4F)ncc3C(F)(F)F)sc12 (stereo partly drawn) [Example 47, 8a-Ethyl-2-(2-(((3R,4R)-3-fluoro-1-(methylsulfonyl)piperidin-4-yl)amino)-5-(trifluoromethyl)pyrimidin-4-yl)-7-(methylamino)-6,7,8,8a-tetrahydro-4H-thieno[2,3-a]pyrrolizin-4-one] |
| ≤ 100 | ≤ 100 | 100 to 500 | COC1CN2C(=O)c3cc(-c4nc(NC5CCN(S(C)(=O)=O)CC5)ncc4C(F)(F)F)sc3C2(C(C)C)C1 (stereo not drawn) [Example 30, 8a-Isopropyl-7-methoxy-2-(2-((1-(methylsulfonyl)piperidin-4-yl)amino)-5-(trifluoromethyl)pyrimidin-4-yl)-6,7,8,8a-tetrahydro-4H-thieno[2,3-a]pyrrolizin-4-one] |
| ≤ 100 | ≤ 100 | ≤ 100 | CCC12CC(N)CN1C(=O)c1cc(-c3nc(N[C@H]4CCN(S(=O)(=O)c5cnn(C)c5)C[C@H]4C)ncc3C(F)(F)F)sc12 (stereo partly drawn) [Example 46, 7-Amino-8a-ethyl-2-(2-(((3R,4S)-3-methyl-1-((1-methyl-1H-pyrazol-4-yl)sulfonyl)piperidin-4-yl)amino)-5-(trifluoromethyl)pyrimidin-4-yl)-6,7,8,8a-tetrahydro-4H-thieno[2,3-a]pyrrolizin-4-one] |
| ≤ 100 | ≤ 100 | ≤ 100 | CCC12CC(N(C)C)CN1C(=O)c1cc(-c3nc(NC4CCN(S(C)(=O)=O)CC4)ncc3C(F)(F)F)sc12 (stereo not drawn) [Example 39, 7-(Dimethylamino)-8a-ethyl-2-(2-((1-(methylsulfonyl)piperidin-4-yl)amino)-5-(trifluoromethyl)pyrimidin-4-yl)-6,7,8,8a-tetrahydro-4H-thieno[2,3-a]pyrrolizin-4-one] |
